Assays:
CB2 receptors [1] = biological target: T1, CB2 receptors (Homo sapiens, UniProt P34972); assay: Radioligand competition binding of [^3H]-CP55940, CHO-K1 cell membranes; set-up: host or cells: CHO-K1 beta-arrestin cells; settings: [^3H]-CP55940 0.3 nM, n=13
Description: (§1) CHO-K1 beta-arrestin cells (DiscoveRx Inc., Fremont, Calif.) expressing human CB1 and human CB2 were cultured in F-12 Nutrient Mixture (HAM) supplemented with 10% FBS, 300 μg ml-1 hygromycin and 800 μg ml-1 geneticin (G418). Cells were incubated in a humidified atmosphere at 37° C. with 5% CO2.
(§2) Stably transfected cells or spleen tissue were homogenized in 15 mmol L-1 Hepes, 0.3 mmol L-1 EDTA, 1 mmol L-1 EGTA, 2 mmol L-1 MgCl2, complete EDTA-free protease inhibitor (Roche Applied Science, Rotkreuz, Switzerland), pH 7.4 using a glass potter and centrifugation at 47,800 g at 4° C. for 30 min. The pellet was then rehomogenized twice in the same buffer and centrifuged (47,800 g, 4° C., 30 min). […]
(§3) For competition binding, membrane preparations were incubated either with 0.3 nM of [^3H]-CP55940 in the presence or absence of increasing concentrations of unlabeled (R^1═CH3) compound of formula (I) or with 1.5 nM compound of formula (I) and increasing amounts of membranes (2.5-80 μg) in the presence or absence of CP55940 (10 μM) for 60 min at 30° C. in a final volume of 0.2 mL of 50 mmol L-1 Tris-HCl, 5 mmol L-1 MgCl2, 2.5 mmol L-1 EGTA, 0.1% fatty acid-free BSA and 1% DMSO, pH 7.4, buffer, gently shaking. […] IC50 values and Hill slopes were determined by a four parameter logistic model using ActivityBase (ID Business Solution, Ltd.).

human CB1 receptors = biological target: T2, human CB1 receptors (Homo sapiens, UniProt P21554); assay: as above; settings: [^3H]-CP55940 0.3 nM, n=6
T2 construct: host or cells: CHO-K1 beta-arrestin cells
T2 sequence (P21554 whole entry): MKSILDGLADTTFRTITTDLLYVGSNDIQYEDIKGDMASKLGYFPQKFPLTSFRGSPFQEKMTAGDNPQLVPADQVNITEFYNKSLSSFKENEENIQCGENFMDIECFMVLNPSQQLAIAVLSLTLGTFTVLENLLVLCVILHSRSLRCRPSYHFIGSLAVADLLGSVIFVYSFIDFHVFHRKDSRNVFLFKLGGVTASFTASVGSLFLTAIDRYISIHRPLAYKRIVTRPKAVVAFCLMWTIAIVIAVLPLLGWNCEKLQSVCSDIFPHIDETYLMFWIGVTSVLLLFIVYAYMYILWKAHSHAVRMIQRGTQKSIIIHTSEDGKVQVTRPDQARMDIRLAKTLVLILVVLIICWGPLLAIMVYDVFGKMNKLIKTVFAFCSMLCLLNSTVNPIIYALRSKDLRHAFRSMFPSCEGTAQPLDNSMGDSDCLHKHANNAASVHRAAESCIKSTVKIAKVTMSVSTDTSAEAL
Description: as §1, §2, §3

CB2 receptors [2] = biological target: T3, CB2 receptors (Mus musculus, UniProt P47936); assay: Radioligand binding (1.5 nM) with increasing amounts of membranes, mouse spleen tissue WT; settings: 1.5 nM radioligand
T3 construct: from tissue; host or cells: mouse spleen (wild type)
T3 sequence (P47936 whole entry): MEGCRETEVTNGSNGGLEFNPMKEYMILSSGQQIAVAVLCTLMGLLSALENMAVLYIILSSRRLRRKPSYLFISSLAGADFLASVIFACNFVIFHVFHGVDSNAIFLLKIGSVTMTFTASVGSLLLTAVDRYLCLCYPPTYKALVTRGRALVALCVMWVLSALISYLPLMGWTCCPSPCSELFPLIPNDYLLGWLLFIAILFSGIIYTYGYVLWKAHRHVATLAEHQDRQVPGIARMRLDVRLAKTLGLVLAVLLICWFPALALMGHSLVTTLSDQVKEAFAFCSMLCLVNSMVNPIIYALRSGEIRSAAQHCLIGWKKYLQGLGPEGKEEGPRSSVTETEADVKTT
Description: (§4) Stably transfected cells or spleen tissue were homogenized in 15 mmol L-1 Hepes, 0.3 mmol L-1 EDTA, 1 mmol L-1 EGTA, 2 mmol L-1 MgCl2, complete EDTA-free protease inhibitor (Roche Applied Science, Rotkreuz, Switzerland), pH 7.4 using a glass potter and centrifugation at 47,800 g at 4° C. for 30 min. The pellet was then rehomogenized twice in the same buffer and centrifuged (47,800 g, 4° C., 30 min). The final pellet was then resuspended in 75 mmol L-1 Tris, 0.3 mmol L-1 EDTA, 1 mmol L-1 EGTA, 12.5 mmol L-1 MgCl2, 250 mmol L-1 sucrose, pH 7.4 at a protein concentration of 1 to 3 mg mL-1, aliquoted, frozen on dry ice and stored at −80° C.
as §3

mouse CB2 receptors = biological target: T4, mouse CB2 receptors (Mus musculus, UniProt P47936); assay: Radioligand saturation binding using mouse spleen tissue WT
T4 construct: from tissue; host or cells: mouse spleen (wild type)
T4 sequence (P47936 whole entry): as above
Description: as §4
Saturation binding was performed with 0.05 to 2.4 nM compound of formula (I) and 40 μg of membrane protein. CP55940 (10 μM) was used to define nonspecific binding. Assay buffer consisted of 50 mmol L-1 Tris-HCl, 5 mmol L-1 MgCl2, 2.5 mmol L-1 EGTA, and 0.1% fatty acid-free BSA, pH 7.4. Assays were initiated by addition of membranes in a final volume of 250 μl/well. Assays were incubated for 2 h at room temperature and then vacuum filtered and rinsed with wash buffer (50 mmol L-1 Tris-HCl, 5 mmol L-1 MgCl2, 2.5 mmol L-1 EGTA, and 0.5% fatty acid-free BSA, pH 7.4) on a Filtermate cell harvester through Packard GF/B filters presoaked in 0.3% polyethylenimine.

[3] = Radioligand binding using mouse spleen KO (CB2 deficient mice); settings: mouse spleen tissue from CB2 deficient mice, increasing amounts of membranes
Description: as §4, §3

CB2 receptors [4] = biological target: T1, CB2 receptors; assay: Binding of HU-910 / [^3H]-HU-910 to CB2 receptors; settings: CB2 receptors labeled with [^3H]-CP55940

T1 sequence (P34972 whole entry): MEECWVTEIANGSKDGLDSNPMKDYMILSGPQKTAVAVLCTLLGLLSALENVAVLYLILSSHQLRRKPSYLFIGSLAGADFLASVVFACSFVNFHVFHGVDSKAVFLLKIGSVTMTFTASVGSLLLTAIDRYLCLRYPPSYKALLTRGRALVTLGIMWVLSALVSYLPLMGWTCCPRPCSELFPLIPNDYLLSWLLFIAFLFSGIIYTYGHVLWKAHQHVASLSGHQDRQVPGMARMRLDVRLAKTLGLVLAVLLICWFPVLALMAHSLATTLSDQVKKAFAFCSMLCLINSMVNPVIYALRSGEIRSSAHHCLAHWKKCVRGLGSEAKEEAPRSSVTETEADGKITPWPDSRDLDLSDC

Cn1c(C(C)(C)C)cc(=NC(=O)c2cc(C(F)(F)F)ccc2OCC(C)(C)O)n1CC1CCC1
Ki (CB2 receptors [1]): 1.07 nM
Ki (human CB1 receptors): 3890 nM

[3H]C([3H])([3H])n1c(C(C)(C)C)c/c(=N\C(=O)c2cc(C(F)(F)F)ccc2OCC(C)(C)O)n1CC1CCC1 [Example 1, (NE)-N-[5-tert-butyl-2-(cyclobutylmethyl)-1-(tritritiomethyl)pyrazol-3-ylidene]-2-(2-hydroxy-2-methyl-propoxy)-5-(trifluoromethyl)benzamide]
specific binding (CB2 receptors [2]): high specific binding
saturability of specific binding (mouse CB2 receptors): saturable
CB2 receptor expression level (Bmax) (mouse CB2 receptors; saturation binding): 430 fmol/mg
Kd (mouse CB2 receptors; saturation binding, read-out: half maximal affinity (Kd)): 0.58 nM
specific binding [3]: lack of specific binding

CCCCCCC(C)(C)c1cc(OC)c(C2=C[C@H]3CC[C@]2(CO)C3(C)C)c(OC)c1 [HU-910]
binding to CB2 receptors (CB2 receptors [4]): selectively and competitively binds to CB2 receptors

— patent US10227308B2, “Radiolabeled cannabinoid receptor 2 ligand” (Hoffmann-La Roche Inc., priority 2014, dated 2019)
